Experimental data taken from patent publication US5869464A, “2'-Deoxy-5-fluorouridine derivatives, a process for their preparation, antitumor agents containing same and methods for using said agents” (Taiho Pharmaceutical Co. Ltd., priority 1993, dated 1999).
Where two headings read alike, the source gives them in different places.

What was measured:
[1] = system: Yoshida sarcoma cells; assay: Antitumor effect on subcutaneously transplanted Yoshida sarcoma (Pharmacological Test Example 1); format: in vivo, rat (male Donryu/CRJ strain); settings: oral; for ED50: Rattus norvegicus, YOSHIDA, once a day for 7 consecutive days from 24 h after transplantation, 8th day, read-out: ED50 (effective dose for achieving 50% inhibition of tumor growth); for T.I. (therapeutic index = BWC50/ED50): once a day for 7 consecutive days
Description: The compounds of the present invention were tested for antitumor effect.
Rat-transplantable tumor, Yoshida sarcoma cells (2×10^4) were subcutaneously transplanted in the back of male Donryu/CRJ strain rats (weighing 150 to 165 g). The test compounds were suspended in a 0.5% aqueous solution of hydroxypropylmethyl cellulose. Twenty-four hours after the transplantation, each suspension was orally administered to rats (7 rats in each group) in an amount of 1.0 ml per 100 g of rats' body weight once a day for 7 consecutive days. Only a solution of hydroxypropylmethyl cellulose containing no test compound was orally administered to the control group in an amount of 1.0 ml/100 g rats' body weight once a day for 7 consecutive days starting 24 hours after the transplantation.
The rats were sacrificed on the 8th day after the transplantation and their tumors were extirpated. The tumors were weighed to calculate an average tumor weight at each dose. The results were compared between the treated group and the control group. An effective dose (ED50) for achieving 50% inhibition of tumor growth was determined from the dose-tumor reduction curve. A dose of 50% inhibition of body weight gain (BWC50)was determined from the dose-body weight change curve. The therapeutic index (T.I.=BWC50 /ED50) was also determined.

[2] = Inhibition of body weight gain in Yoshida sarcoma-bearing rats (Pharmacological Test Example 1); set-up: species or system rat (male Donryu/CRJ strain); settings: rat, in vivo
[3] = system: human kidney cancer strain, JRC-11; assay: Tumor growth inhibition, nude rat-transplantable human kidney cancer strain JRC-11 (Pharmacological Test Example 2(a)); format: in vivo, human tumor in male F344/N Jcl-rnu nude rat; settings: once a day for 14 consecutive days
From the text: (§1) (a) A tumor piece (about 2 mm^3) of nude rat-transplantable human kidney cancer strain, JRC-11, was subcutaneously transplanted in the armpit of each male F344/N Jcl-rnu nude rat. The treatment of rats (7 rats in each group) started when the rats' tumors grew to an estimated volume of 250 mm^3 as calculated by an equation
wherein L is the length of the tumor and W is the width of the tumor, each being measured by calipers. The treated group (rats to be treated with the test compounds) and the control group were tested under equal conditions concerning the mean value of tumor volume and standard deviation. The test compounds were suspended in a 0.5% aqueous solution of hydroxypropylmethyl cellulose. Each suspension was orally administered to rats in an amount of 1.0 ml per 100 g of rats' body weight once a day for 14 consecutive days. Only a solution of hydroxypropylmethyl cellulose containing no test compound was orally administered to the control group in an amount of 1.0 ml per 100 g rats' body weight once a day for 14 consecutive days.
(§2) A ratio of tumor growth of each rat was calculated from two tumor volumes on the first day of administration and on the day following the last administration. A mean ratio of tumor growth of the group (T) or the control group (C) was calculated from said ratio. Then, a tumor growth inhibition ratio (%) was calculated by the following equation: […]

[4] = system: human stomach cancer strain, H-81; assay: Tumor growth inhibition, nude rat-transplantable human stomach cancer strain H-81 (Pharmacological Test Example 2(b)); format: in vivo, human tumor in male F344/N Jcl-rnu nude rat; settings: once a day for 14 consecutive days
From the text: as §1
wherein L is the length of the tumor and W is the width of the tumor, each being measured by calipers. The treated group (rats to be treated with the test compounds) and the control group were tested under equal conditions concerning the mean value of tumor volume and standard deviation. The test compounds were suspended in a 0.5% aqueous solution of hydroxypropylmethyl cellulose. […]
as §2
(b) The same experiment as in (a) was conducted except that a nude rat-transplantable human stomach cancer strain, H-81, was used in place of the nude rat-transplantable human kidney cancer strain, JRC-11. A tumor growth inhibition ratio was calculated.

[5] = system: Yoshida sarcoma cells; assay: Antitumor effect on subcutaneously transplanted Yoshida sarcoma (Pharmacological Test Example 1); format: in vivo, rat (male Donryu/CRJ strain); settings: for ED50: Rattus norvegicus, YOSHIDA, iv, read-out: ED50 (effective dose for achieving 50% inhibition of tumor growth)
[6] = system: tumor cells; settings: in vitro tests; cited from earlier work
[7] = under the influence of pyrimidine nucleoside phosphorylase; cited from earlier work
[8] = CVI: continuous intravenous drip injection

Compound | ED50 [1] [mg/kg] | T.I. (therapeutic index = BWC50/ED50) [1] | TD50 ([2]; po) [mg/kg] | also measured
O=c1[nH]c(=O)n([C@H]2C[C@H](OCc3ccc(Cl)cc3F)[C@@H](CO)O2)cc1F [Comparative Compound 1, 3'-O-(4-chloro-2-fluorobenzyl)-2'-deoxy-5-fluorouridine] | 7.5 | 1.1 | 8.5 | –
CCCOc1nc(=O)n([C@H]2C[C@H](O)[C@@H](CO)O2)cc1F [Comparative Compound 2, 2'-deoxy-4-O-n-propyl-5-fluorouridine] | 34 | 1.1 | 37 | –
CCCCC(=O)OC[C@H]1O[C@@H](n2cc(F)c(OCc3ccc(F)cc3)nc2=O)C[C@@H]1OC(=O)CCCC [Comparative Compound 3, 2'-deoxy-4-O-(4-fluorobenzyl)-3',5'-di-O-n-pentanoyl-5-fluorouridine] | > 40 | < 1.0 | 40 | –
CCCOc1nc(=O)n([C@H]2C[C@H](OCc3ccc(Cl)cc3F)[C@@H](CO)O2)cc1F [Compound 3] | 4 | 3.5 | 14 | –
CCCOc1nc(=O)n([C@H]2C[C@H](OCc3ccc(F)cc3F)[C@@H](CO)O2)cc1F [Compound 7] | 7.5 | 2.4 | 18 | –
CCCOc1nc(=O)n([C@H]2C[C@H](OCc3ccc(Cl)cc3Cl)[C@@H](CO)O2)cc1F [Compound 12] | 3 | 5.3 | 16 | –
CCOc1nc(=O)n([C@H]2C[C@H](OCc3ccc(Cl)cc3F)[C@@H](CO)O2)cc1F [Compound 13, 3'-O-(4-chloro-2-fluorobenzyl)-2'-deoxy-4-O-ethyl-5-fluorouridine] | – | – | – | Inhibition ratio (%) (tumor growth) ([3]; 3.75 mg/kg oral): 67%; Inhibition ratio (%) (tumor growth) ([3]; 7.5 mg/kg oral): 73%; Inhibition ratio (%) (tumor growth) ([4]; 3.75 mg/kg oral): 74%; Inhibition ratio (%) (tumor growth) ([4]; 7.5 mg/kg oral): 79%
O=c1[nH]c(=O)n([C@H]2C[C@H](O)[C@@H](CO)O2)cc1F [FdUrd, 2'-deoxy-5-fluorouridine] | – | – | – | TD50 ([2]; iv, CVI: continuous intravenous drip injection, read-out: BWC50 (dose of 50% inhibition of body weight gain)): 0.7 mg/kg; TD50 ([2]; iv, iv: intravenous injection, read-out: BWC50 (dose of 50% inhibition of body weight gain)): 60 mg/kg; T.I. (therapeutic index = BWC50/ED50) [5, 8]: 0.88; ED50 [5, 8]: 0.8 mg/kg; ED50 ([5]; iv: intravenous injection): 44 mg/kg; T.I. (therapeutic index = BWC50/ED50) ([5]; iv: intravenous injection): 1.36; inhibition of the growth of tumor cells [6]: significantly inhibits the growth of tumor cells; therapeutic effect in vivo [7]: can not produce a satisfactory therapeutic effect
